Source: PubChem BioAssay AID248 (DTP/NCI, 2004)
Where “and” joins values, the source holds several entries; their conditions need not be identical. Equal entries are not always repeated. Inconclusive results and toxic doses are left out. Cut-off read from the data, not from the text of the source: active = T/C of 150% or more; inactive = T/C below 125%. Peptide text beside a SMILES is read from it. * marks the point of attachment. Cbz = O=C(OCc1ccccc1)*; Bn = c1ccc(C*)cc1

System: L1210 leukemia ip in BDF1 mice, survival T/C
Assay: NCI In Vivo Anticancer Drug Screen. Data for tumor model L1210 Leukemia (intraperitoneal) in B6D2F1 (BDF1) mice
Conditions: endpoint: mean survival time, higher = longer survival
Summary of the method: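 Value reflects the ratio of survival in compound-treated mice to survival in vehicle-treated controls, with both groups carrying the same transplanted tumor.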

[1] = dose: 100.0 mg/kg/injection, schedule: Q04DX002 (ip), vehicle: saline with Tween-80
[2] = dose: 200.0 mg/kg/injection, schedule: Q04DX002 (ip), vehicle: saline with Tween-80
[3] = dose: 400.0 mg/kg/injection, schedule: Q04DX002 (ip), vehicle: saline with Tween-80
[4] = dose: 100.0 mg/kg/injection, schedule: Q01DX009 (ip), vehicle: Klucel (hydroxypropylcellulose) (HPC)
[5] = dose: 100.0 mg/kg/injection, schedule: Q04DX003 (ip), vehicle: Klucel (hydroxypropylcellulose) (HPC)
[6] = dose: 200.0 mg/kg/injection, schedule: Q01DX009 (ip), vehicle: Klucel (hydroxypropylcellulose) (HPC)
[7] = dose: 200.0 mg/kg/injection, schedule: Q04DX003 (ip), vehicle: Klucel (hydroxypropylcellulose) (HPC)
[8] = dose: 400.0 mg/kg/injection, schedule: Q01DX009 (ip), vehicle: Klucel (hydroxypropylcellulose) (HPC)
[9] = dose: 400.0 mg/kg/injection, schedule: Q04DX003 (ip), vehicle: Klucel (hydroxypropylcellulose) (HPC)
[10] = dose: 100.0 mg/kg/injection, schedule: Q04DX002 (ip), vehicle: Klucel (hydroxypropylcellulose) (HPC)
[11] = dose: 200.0 mg/kg/injection, schedule: Q04DX002 (ip), vehicle: Klucel (hydroxypropylcellulose) (HPC)
[12] = dose: 15.0 mg/kg/injection, schedule: Q01DX Z (ip), vehicle: saline
[13] = dose: 400.0 mg/kg/injection, schedule: Q04DX002 (ip), vehicle: Klucel (hydroxypropylcellulose) (HPC)

Measured: T/C

O=C(C=C(C(F)(F)F)C(F)(F)F)c1c2ccccc2cc2ccccc12
inactive: dose: 0.18 mg/kg/injection, schedule: Q01DX009 (ip), vehicle: DMSO 87 % of control | dose: 0.37 mg/kg/injection, schedule: Q01DX009 (ip), vehicle: DMSO 99 % of control | dose: 0.75 mg/kg/injection, schedule: Q01DX009 (ip), vehicle: DMSO 97 % of control | dose: 1.5 mg/kg/injection, schedule: Q01DX009 (ip), vehicle: DMSO 93 % of control | dose: 3.0 mg/kg/injection, schedule: Q01DX009 (ip), vehicle: DMSO 93 % of control and 88 % of control | dose: 3.0 mg/kg/injection, schedule: Q04DX003 (ip), vehicle: DMSO 100 % of control | dose: 6.0 mg/kg/injection, schedule: Q04DX003 (ip), vehicle: DMSO 98 % of control | dose: 12.0 mg/kg/injection, schedule: Q04DX003 (ip), vehicle: DMSO 97 % of control | dose: 12.5 mg/kg/injection, schedule: Q04DX003 (ip), vehicle: DMSO 93 % of control

N=C(N)SCc1ccccc1Cl
inactive: dose: 3.13 mg/kg/injection, schedule: Q01DX009 (ip), vehicle: saline 96 % of control | dose: 3.13 mg/kg/injection, schedule: Q04DX002 (ip), vehicle: saline 102 % of control | dose: 6.25 mg/kg/injection, schedule: Q01DX009 (ip), vehicle: saline 98 % of control | dose: 6.25 mg/kg/injection, schedule: Q04DX002 (ip), vehicle: saline 102 % of control | dose: 12.5 mg/kg/injection, schedule: Q01DX009 (ip), vehicle: saline 96 % of control | dose: 12.5 mg/kg/injection, schedule: Q04DX002 (ip), vehicle: saline 91 % of control | dose: 25.0 mg/kg/injection, schedule: Q01DX009 (ip), vehicle: saline 96 % of control | dose: 25.0 mg/kg/injection, schedule: Q04DX002 (ip), vehicle: saline 97 % of control and 98 % of control | dose: 50.0 mg/kg/injection, schedule: Q04DX002 (ip), vehicle: saline 94 % of control

COc1ccc(-c2nnc3n2C(C)(C)N=C(N)N3)cc1
inactive: dose: 100.0 mg/kg/injection, schedule: Q04DX003 (ip), vehicle: saline with Tween-80 94 % of control | dose: 200.0 mg/kg/injection, schedule: Q04DX003 (ip), vehicle: saline with Tween-80 100 % of control | dose: 400.0 mg/kg/injection, schedule: Q04DX003 (ip), vehicle: saline with Tween-80 97 % of control

CCOC(=O)C1Oc2ccccc2O1
inactive: dose: 100.0 mg/kg/injection, schedule: Q01DX009 (ip), vehicle: saline with Tween-80 105 % of control | [1] 113 % of control | dose: 200.0 mg/kg/injection, schedule: Q01DX009 (ip), vehicle: saline with Tween-80 99 % of control | [2] 100 % of control | dose: 400.0 mg/kg/injection, schedule: Q01DX009 (ip), vehicle: saline with Tween-80 101 % of control | [3] 97 % of control

CCOC(=O)CC1OC(=O)c2ccccc21 (configuration not stated)
inactive: [1] 97 % of control | [2] 104 % of control | [3] 108 % of control

COc1ccccc1NC(=O)Nc1ccccc1OC
inactive: [4] 98 % of control | [5] 97 % of control | [6] 104 % of control | [7] 97 % of control | [8] 103 % of control | [9] 94 % of control

CSCC(C)(C)NC(=O)NCCCl
inactive: [10] 89 % of control | [11] 89 % of control

NC(=O)c1cc(Cl)cc(Cl)c1N
inactive: dose: 100.0 mg/kg/injection, schedule: Q01DX001 (ip), vehicle: Klucel (hydroxypropylcellulose) (HPC) 100 % of control | dose: 200.0 mg/kg/injection, schedule: Q01DX001 (ip), vehicle: Klucel (hydroxypropylcellulose) (HPC) 107 % of control | dose: 400.0 mg/kg/injection, schedule: Q01DX001 (ip), vehicle: Klucel (hydroxypropylcellulose) (HPC) 111 % of control

COc1cc(/C=N/N=C(N)N)ccc1O
inactive: [12] 95 % of control | dose: 30.0 mg/kg/injection, schedule: Q01DX Z (ip), vehicle: saline 88 % of control | dose: 60.0 mg/kg/injection, schedule: Q01DX Z (ip), vehicle: saline 101 % of control | dose: 120.0 mg/kg/injection, schedule: Q01DX Z (ip), vehicle: saline 97 % of control | dose: 240.0 mg/kg/injection, schedule: Q01DX Z (ip), vehicle: saline 89 % of control

O=C1c2ccccc2C(=O)C2C3C=CC(C3)C12 (configuration not stated)
inactive: dose: 50.0 mg/kg/injection, schedule: Q01DX001 (ip), vehicle: carboxymethylcellulose (CMC) 93 % of control | dose: 100.0 mg/kg/injection, schedule: Q01DX001 (ip), vehicle: carboxymethylcellulose (CMC) 100 % of control | dose: 200.0 mg/kg/injection, schedule: Q01DX001 (ip), vehicle: carboxymethylcellulose (CMC) 100 % of control | dose: 400.0 mg/kg/injection, schedule: Q01DX001 (ip), vehicle: carboxymethylcellulose (CMC) 103 % of control

Cc1ccc(NC(=O)Oc2cc(C)c(Cl)c(C)c2)cc1
inactive: [4] 94 % of control | [6] 97 % of control | [8] 96 % of control

Cc1cccc2cc3ccc4ccccc4c3cc12
inactive: [4] 102 % of control | dose: 100.0 mg/kg/injection, schedule: Q04DX003 (ip), vehicle: other 101 % of control | [6] 95 % of control | dose: 200.0 mg/kg/injection, schedule: Q04DX003 (ip), vehicle: other 101 % of control | [8] 101 % of control | dose: 400.0 mg/kg/injection, schedule: Q04DX003 (ip), vehicle: other 95 % of control

O=C(O)C1C2OC3C(OC(=O)C31)C2Br (configuration not stated)
inactive: dose: 50.0 mg/kg/injection, schedule: Q04DX002 (ip), vehicle: Klucel (hydroxypropylcellulose) (HPC) 107 % of control | [4] 89 % of control | [10] 104 % of control | [5] 101 % of control | [6] 91 % of control | [11] 100 % of control | [7] 92 % of control | [8] 88 % of control | [13] 96 % of control | [9] 93 % of control

CN=C(NCCCOC)c1ccc(NC(=O)c2ccc(C(=O)Nc3ccc(C(=NC)NCCCOC)cc3)cc2)cc1
active: dose: 10.0 mg/kg/injection, schedule: Q01DX Z (ip), vehicle: carboxymethylcellulose (CMC) 156 % of control | dose: 15.0 mg/kg/injection, schedule: Q01DX Z (ip), vehicle: carboxymethylcellulose (CMC) 179 % of control | [12] 155 % of control and 172 % of control
inactive: dose: 4.4 mg/kg/injection, schedule: Q01DX Z (ip), vehicle: carboxymethylcellulose (CMC) 124 % of control | dose: 4.4 mg/kg/injection, schedule: Q01DX Z (ip), vehicle: saline 108 % of control | dose: 6.6 mg/kg/injection, schedule: Q01DX Z (ip), vehicle: saline 108 % of control | dose: 30.0 mg/kg/injection, schedule: Q01DX Z (oral), vehicle: saline 101 % of control | dose: 60.0 mg/kg/injection, schedule: Q01DX Z (oral), vehicle: saline 91 % of control | dose: 120.0 mg/kg/injection, schedule: Q01DX Z (oral), vehicle: saline 93 % of control | dose: 240.0 mg/kg/injection, schedule: Q01DX Z (oral), vehicle: saline 87 % of control | dose: 480.0 mg/kg/injection, schedule: Q01DX Z (oral), vehicle: saline 91 % of control

O=C(NC(CSCc1ccccc1)C(=O)NC(Cc1ccc(O)cc1)C(=O)O)OCc1ccccc1 (configuration not stated) (Cbz-Cys(Bn)-Tyr-OH; configuration not given here)
inactive: dose: 100.0 mg/kg/injection, schedule: Q01DX009 (ip), vehicle: gum acacia 95 % of control | dose: 100.0 mg/kg/injection, schedule: Q04DX003 (ip), vehicle: gum acacia 103 % of control | dose: 200.0 mg/kg/injection, schedule: Q01DX009 (ip), vehicle: gum acacia 95 % of control | dose: 200.0 mg/kg/injection, schedule: Q04DX003 (ip), vehicle: gum acacia 103 % of control | dose: 400.0 mg/kg/injection, schedule: Q01DX009 (ip), vehicle: gum acacia 89 % of control | dose: 400.0 mg/kg/injection, schedule: Q04DX003 (ip), vehicle: gum acacia 92 % of control

Nc1cc2ccccc2cn1
inactive: [5] 112 % of control | [7] 102 % of control | [9] 107 % of control

COC1OC(CBr)C(OC(C)=O)C(OC(C)=O)C1OS(C)(=O)=O (configuration not stated)
inactive: [10] 100 % of control | [11] 97 % of control | [13] 103 % of control
